Experimental data from the supplement of paper PMC10307832.

How the values were obtained:
Assay in all cases: relative viability (nuclei count vs DMSO), 5 days (fraction); higher = more cells survive
[1] = compound: CC1=C(N=C(N=C1N)[C@H](CC(=O)N)NC[C@@H](C(=O)N)N)C(=O)N[C@@H]([C@H](C2=CN=CN2)OC3C(C(C(C(O3)CO)O)O)OC4C(C(C(C(O4)CO)O)OC(=O)N)O)C(=O)N[C@H](C)[C@H]([C@H](C)C(=O)N[C@@H]([C@@H](C)O)C(=O)NCCC5=NC(=CS5)C6=NC(=CS6)C(=O)NCCC[S+](C)C)O [Bleomycin] + CC(=O)c1c(C)c2cnc(Nc3ccc(N4CCNCC4)cn3)nc2n(C2CCCC2)c1=O [Palbociclib] (partner 0.5 µM); details: main component drawn
Procedure, shortened: (§1)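 Nuclei were stained with Hoechst during a one-step fixation (final 0.05% Triton X-100, 1% formaldehyde, 1 ug/ml Hoechst) carried out 5 days after dosing, then counted on 4× images. The cells, lung cancer lines in 1536-well plates, had been dosed by pin tool the day after seeding with one drug alone or a fixed anchor-drug dose plus five library-drug doses (not always all listed) in √10 steps. Relative viability is the nuclei count in treated wells divided by that in vehicle wells, and each value is the median of duplicate plates.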

[2] = compound: CC1=C(N=C(N=C1N)[C@H](CC(=O)N)NC[C@@H](C(=O)N)N)C(=O)N[C@@H]([C@H](C2=CN=CN2)OC3C(C(C(C(O3)CO)O)O)OC4C(C(C(C(O4)CO)O)OC(=O)N)O)C(=O)N[C@H](C)[C@H]([C@H](C)C(=O)N[C@@H]([C@@H](C)O)C(=O)NCCC5=NC(=CS5)C6=NC(=CS6)C(=O)NCCC[S+](C)C)O [Bleomycin] + NC(=O)Nc1cc(-c2cccc(F)c2)sc1C(=O)N[C@H]1CCCNC1 [AZD7762] (partner 0.2 µM); details: main component drawn
Procedure, shortened: as §1

[3] = compound: COc1cc([C@@H]2c3cc4c(cc3[C@@H](O[C@@H]3O[C@@H]5CO[C@@H](C)O[C@H]5[C@H](O)[C@H]3O)[C@H]3COC(=O)[C@H]23)OCO4)cc(OC)c1O [Etoposide] + C[C@@H](Oc1cc(-c2cnn(C3CCNCC3)c2)cnc1N)c1c(Cl)ccc(F)c1Cl [Crizotinib] (partner 1 µM)
Procedure, shortened: as §1

[4] = compound: COc1cc([C@@H]2c3cc4c(cc3[C@@H](O[C@@H]3O[C@@H]5CO[C@@H](C)O[C@H]5[C@H](O)[C@H]3O)[C@H]3COC(=O)[C@H]23)OCO4)cc(OC)c1O [Etoposide] + Nc1ncn([C@H]2C[C@H](O)[C@@H](CO)O2)c(=O)n1 [Decitabine] (partner 2 µM)
Procedure, shortened: as §1

Row | Cell Line | relative viability ([1]; first compound 0.01 µM) | relative viability ([1]; first compound 0.03162 µM) | relative viability ([1]; first compound 0.1 µM) | relative viability ([1]; first compound 0.3162 µM) | relative viability ([1]; first compound 1 µM) | relative viability ([2]; first compound 0.01 µM) | relative viability ([2]; first compound 0.03162 µM) | relative viability ([2]; first compound 0.1 µM) | relative viability ([2]; first compound 0.3162 µM) | relative viability ([2]; first compound 1 µM) | relative viability ([3]; first compound 0.01 µM) | relative viability ([3]; first compound 0.03162 µM) | relative viability ([3]; first compound 0.1 µM) | relative viability ([3]; first compound 0.3162 µM) | relative viability ([3]; first compound 1 µM) | relative viability ([4]; first compound 0.01 µM) | relative viability ([4]; first compound 0.03162 µM) | relative viability ([4]; first compound 0.1 µM) | relative viability ([4]; first compound 0.3162 µM) | relative viability ([4]; first compound 1 µM)
1 | NCI-H2347 | 0.43 | 0.479 | 0.459 | 0.359 | 0.338 | 0.727 | 0.858 | 0.714 | 0.325 | 0.45 | 0.677 | 0.455 | 0.408 | 0.384 | 0.339 | 0.6 | 0.628 | 0.573 | 0.443 | 0.411
2 | NCI-H1944 | 0.228 | 0.188 | 0.218 | 0.156 | 0.13 | 0.246 | 0.384 | 0.317 | 0.211 | 0.172 | 1.03 | 1.1 | 0.763 | 0.641 | 0.258 | 0.396 | 0.459 | 0.384 | 0.36 | 0.296
3 | EKVX | 0.366 | 0.366 | 0.299 | 0.209 | 0.189 | 0.607 | 0.598 | 0.544 | 0.538 | 0.237 | 0.868 | 0.916 | 0.891 | 0.816 | 0.414 | 0.281 | 0.351 | 0.282 | 0.31 | 0.229
4 | NCI-H358 | 0.142 | 0.178 | 0.115 | 0.133 | 0.111 | 0.417 | 0.579 | 0.551 | 0.426 | 0.446 | 0.689 | 0.441 | 0.518 | 0.261 | 0.139 | 0.229 | 0.212 | 0.155 | 0.136 | 0.103
5 | EPLC-272H | 0.329 | 0.311 | 0.311 | 0.213 | 0.218 | 0.208 | 0.192 | 0.145 | 0.114 | 0.112 | 1.07 | 1.03 | 0.628 | 0.703 | 0.489 | 0.339 | 0.412 | 0.338 | 0.328 | 0.297
6 | LXF-289 | 0.58 | 0.571 | 0.606 | 0.324 | 0.221 | 1.01 | 1.07 | 0.928 | 0.419 | 0.143 | 0.851 | 0.824 | 0.836 | 0.511 | 0.251 | 0.378 | 0.383 | 0.306 | 0.307 | 0.194
7 | NCI-H3122 | 0.198 | 0.186 | 0.18 | 0.132 | 0.148 | 0.972 | 0.991 | 0.966 | 0.379 | 0.33 | 0.307 | 0.288 | 0.231 | 0.262 | 0.246 | 0.465 | 0.536 | 0.384 | 0.385 | 0.249
